Results reported in US20080125467A1, “Amino-Containing Compounds Which Inhibit Memapsin 2 Beta-Secretase Activity and Methods of Use Thereof” (priority 2004, published 2008).

These compounds were tested against T1, memapsin 2 (Cricetulus griseus, UniProt G3IAK4) (assay: Cellular Aβ IC50 determination (Aβ40 sandwich ELISA)). Settings: Chinese hamster ovary cells over-expressing human APP695 with London and Swedish mutations, 24 h.
T1 construct: endogenous in cells; host or cells: Chinese hamster ovary cells over-expressing human APP695 (London + Swedish)
T1 sequence (G3IAK4 22-501): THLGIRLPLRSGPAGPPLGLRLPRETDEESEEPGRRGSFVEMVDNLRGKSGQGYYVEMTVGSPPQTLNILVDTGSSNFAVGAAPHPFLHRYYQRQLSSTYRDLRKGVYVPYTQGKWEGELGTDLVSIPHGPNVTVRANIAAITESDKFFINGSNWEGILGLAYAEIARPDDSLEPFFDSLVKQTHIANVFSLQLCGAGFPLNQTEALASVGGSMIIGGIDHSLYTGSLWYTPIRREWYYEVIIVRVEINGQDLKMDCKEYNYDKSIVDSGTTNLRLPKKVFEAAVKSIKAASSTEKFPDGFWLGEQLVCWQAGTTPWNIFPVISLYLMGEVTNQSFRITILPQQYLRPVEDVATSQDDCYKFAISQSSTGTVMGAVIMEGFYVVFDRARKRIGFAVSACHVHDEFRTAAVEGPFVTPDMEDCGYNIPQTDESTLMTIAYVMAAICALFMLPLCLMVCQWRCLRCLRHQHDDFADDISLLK
Assay type: cell-based
Experimental: The potency of compounds against memapsin 2 activity was determined in a cellular assay of Aβ production. […] Chinese hamster ovary cells that over-express human APP695 with the London and Swedish mutations were seeded in multi-well plates at 10% confluency. Compounds were dissolved in DMSO to concentrations near 1 mM, and diluted into culture media to a final concentration near 4 μM (final 0.4% DMSO). Compounds were diluted serially and applied to cells in multi-well plates 48 h after seeding. Incubation was continued in 5% CO2 at 37 degrees C. for 24 h. Aliquots were removed and assayed for Aβ40 content using a sandwich ELISA (BioSource International). Amount of Aβ40 over the range of concentration of compounds, relative to control incubations, were fit to a 4-parameter IC50 model.

**Q.** Which IC50 does the source give for `Cc1csc(COC(=O)NCC(NC(=O)C(C)Cc2nc(C)cs2)C(=O)NC(CC(C)C)C(O)CC(C)C(=O)NC(C(=O)NCC(C)C)C(C)C)n1` (stereo not drawn) [(4-methylthiazol-2-yl)methyl 3-(5-hydroxy-8-(1-(isobutylamino)-3-methyl-1-oxobutan-2-ylamino)-2,7-dimethyl-8-oxooctan-4-ylamino)-2-(2-methyl-3-(4-methylthiazol-2-yl)propanamido)-3-oxopropylcarbamate] here?
**A.** The IC50 was under 6 µM.

**Q.** With `COCCOC(=O)NCC(NC(=O)C(C)Cc1nc(C)cs1)C(=O)NC(CC(C)C)C(O)CC(C)C(=O)NC(C(=O)NCC(C)C)C(C)C` (stereo not drawn) [2-methoxyethyl 3-(5-hydroxy-8-(1-(isobutylamino)-3-methyl-1-oxobutan-2-ylamino)-2,7-dimethyl-8-oxooctan-4-ylamino)-2-(2-methyl-3-(4-methylthiazol-2-yl)propanamido)-3-oxopropylcarbamate] as the compound, how does the IC50 read?
**A.** Its IC50 is under 6 µM.

**Q.** `Cc1cc(C)n(CC(N)C(=O)NC(CNC(=O)OC(C)(C)C)C(=O)NC(CC(C)C)C(O)CC(C)C(=O)NC(C(=O)NCC(C)C)C(C)C)n1` (stereo not drawn) [tert-butyl 2-(2-amino-3-(3,5-dimethyl-1H-pyrazol-1-yl)propanamido)-3-(5-hydroxy-8-(1-(isobutylamino)-3-methyl-1-oxobutan-2-ylamino)-2,7-dimethyl-8-oxooctan-4-ylamino)-3-oxopropylcarbamate] was tested. Which IC50 did it give?
**A.** Its IC50 is over 100 µM.

**Q.** How did the IC50 turn out when `Cc1csc(CC(C)C(=O)NC(CNC(=O)OC(C)(C)C)C(=O)NC(CC(C)C)C(O)CC(C)C(=O)NC(C(=O)NCc2ccncc2)C(C)C)n1` (stereo not drawn) [tert-butyl 3-(5-hydroxy-2,7-dimethyl-8-(3-methyl-1-oxo-1-(pyridin-4-ylmethylamino)butan-2-ylamino)-8-oxooctan-4-ylamino)-2-(2-methyl-3-(4-methylthiazol-2-yl)propanamido)-3-oxopropylcarbamate] was run?
**A.** The IC50 was under 6 µM.

**Q.** How did the IC50 turn out when `Cc1cc(C)n(CC(N=[N+]=[N-])C(=O)NC(CNC(=O)OC(C)(C)C)C(=O)NC(CC(C)C)C(O)CC(C)C(=O)NC(C(=O)NCC(C)C)C(C)C)n1` (stereo not drawn) [tert-butyl 2-(2-azido-3-(3,5-dimethyl-1H-pyrazol-1-yl)propanamido)-3-(5-hydroxy-8-(1-(isobutylamino)-3-methyl-1-oxobutan-2-ylamino)-2,7-dimethyl-8-oxooctan-4-ylamino)-3-oxopropylcarbamate] was run?
**A.** Its IC50 is 6 to 100 µM.

**Q.** `Cc1cc(C)n(CC(C)C(=O)NC(CNC(=O)OC2CCOC2)C(=O)NC(CC(C)C)C(O)CC(C)C(=O)NC(C(=O)NCC(C)C)C(C)C)n1` (stereo not drawn) [tetrahydrofuran-3-yl 2-(3-(3,5-dimethyl-1H-pyrazol-1-yl)-2-methylpropanamido)-3-(5-hydroxy-8-(1-(isobutylamino)-3-methyl-1-oxobutan-2-ylamino)-2,7-dimethyl-8-oxooctan-4-ylamino)-3-oxopropylcarbamate] was tested. Which IC50 did it give?
**A.** Its IC50 is 6 to 100 µM.

**Q.** How did the IC50 turn out when `CCC(CC(O)C(CC(C)C)NC(=O)C(CNC(=O)OC(C)(C)C)NC(=O)C(C)Cc1nc(C)cs1)C(=O)NC(C(=O)NCC(C)C)C(C)C` (stereo not drawn) [tert-butyl 3-(5-hydroxy-7-(1-(isobutylamino)-3-methyl-1-oxobutan-2-ylcarbamoyl)-2-methylnonan-4-ylamino)-2-(2-methyl-3-(4-methylthiazol-2-yl)propanamido)-3-oxopropylcarbamate] was run?
**A.** Its IC50 is under 6 µM.

**Q.** Which IC50 does the source give for `CCC(Cn1nc(C)cc1C)C(=O)NC(CNC(=O)OC(C)(C)C)C(=O)NC(CC(C)C)C(O)CC(C)C(=O)NC(C(=O)NCc1ccncc1)C(C)C` (stereo not drawn) [tert-butyl 2-(2-((3,5-dimethyl-1H-pyrazol-1-yl)methyl)butanamido)-3-(5-hydroxy-2,7-dimethyl-8-(3-methyl-1-oxo-1-(pyridin-4-ylmethylamino)butan-2-ylamino)-8-oxooctan-4-ylamino)-3-oxopropylcarbamate] here?
**A.** Its IC50 is under 6 µM.

**Q.** Which IC50 does the source give for `Cc1csc(COC(=O)N[C@@H](CNC(=O)OC(C)(C)C)C(=O)N[C@@H](CC(C)C)[C@@H](O)C[C@@H](C)C(=O)N[C@H](C(=O)NCC(C)C)C(C)C)n1` here?
**A.** The IC50 was over 100 µM.

**Q.** With `CCC(Cn1nc(C)cc1C)C(=O)NC(CNC(=O)OC(C)(C)C)C(=O)NC(CC(C)C)C(O)CC(C)C(=O)NC(C(=O)NCC(F)(F)F)C(C)C` (stereo not drawn) [tert-butyl 2-(2-((3,5-dimethyl-1H-pyrazol-1-yl)methyl)butanamido)-3-(5-hydroxy-2,7-dimethyl-8-(3-methyl-1-oxo-1-(2,2,2-trifluoroethylamino)butan-2-ylamino)-8-oxooctan-4-ylamino)-3-oxopropylcarbamate] as the compound, how does the IC50 read?
**A.** Its IC50 is 6 to 100 µM.

**Q.** Which IC50 does the source give for `COC(=O)NC[C@H](NC(=O)OCc1nc(C)cs1)C(=O)N[C@@H](CC(C)C)[C@@H](O)C[C@@H](C)C(=O)N[C@H](C(=O)NCC(C)C)C(C)C` here?
**A.** The IC50 was under 6 µM.

**Q.** `CCC(Cc1nc(C)cs1)C(=O)NC(CNC(=O)OC(C)(C)C)C(=O)NC(CC(C)C)C(O)CC(C)C(=O)NC(C(=O)NCC(C)C)C(C)C` (stereo not drawn) [tert-butyl 3-(5-hydroxy-8-(1-(isobutylamino)-3-methyl-1-oxobutan-2-ylamino)-2,7-dimethyl-8-oxooctan-4-ylamino)-2-(2-((4-methylthiazol-2-yl)methyl)butanamido)-3-oxopropylcarbamate] was tested. Which IC50 did it give?
**A.** The IC50 was under 6 µM.

**Q.** For `Cc1csc(CC(C)C(=O)NC(CN)C(=O)NC(CC(C)C)C(O)CC(C)C(=O)NC(C(=O)NCC(C)C)C(C)C)n1` (stereo not drawn) [5-(3-amino-2-(2-methyl-3-(4-methylthiazol-2-yl)propanamido)propanamido)-4-hydroxy-N-(1-(isobutylamino)-3-methyl-1-oxobutan-2-yl)-2,7-dimethyloctanamide], which IC50 is on record?
**A.** Its IC50 is 6 to 100 µM.

**Q.** Which IC50 does the source give for `Cc1csc(CC(C)C(=O)NC(CNC(=O)OC(C)(C)C)C(=O)NC(CC(C)C)C(O)CC(C)C(=O)NC(C(=O)NCC(C)C)C(C)C)n1` (stereo not drawn) [tert-butyl 3-(5-hydroxy-8-(1-(isobutylamino)-3-methyl-1-oxobutan-2-ylamino)-2,7-dimethyl-8-oxooctan-4-ylamino)-2-(2-methyl-3-(4-methylthiazol-2-yl)propanamido)-3-oxopropylcarbamate] here?
**A.** Its IC50 is under 6 µM.

**Q.** With `COC(=O)NCC(NC(=O)C(C)Cc1nc(C)cs1)C(=O)NC(CC(C)C)C(O)CC(C)C(=O)NC(C(=O)NCC(C)C)C(C)C` (stereo not drawn) [methyl 3-(5-hydroxy-8-(1-(isobutylamino)-3-methyl-1-oxobutan-2-ylamino)-2,7-dimethyl-8-oxooctan-4-ylamino)-2-(2-methyl-3-(4-methylthiazol-2-yl)propanamido)-3-oxopropylcarbamate] as the compound, how does the IC50 read?
**A.** Its IC50 is under 6 µM.

**Q.** How did the IC50 turn out when `Cc1csc(CC(C)C(=O)NC(CNS(C)(=O)=O)C(=O)NC(CC(C)C)C(O)CC(C)C(=O)NC(C(=O)NCC(C)C)C(C)C)n1` (stereo not drawn) [4-hydroxy-N-(1-(isobutylamino)-3-methyl-1-oxobutan-2-yl)propanamido)-3-(methylsulfonamido)propanamido)octanamide] was run?
**A.** Its IC50 is under 6 µM.

**Q.** For `Cc1csc(CC(C)C(=O)NC(CNC(=O)OC(C)(C)C)C(=O)NC(Cc2cc(F)cc(F)c2)C(O)CC(C)C(=O)NC(C(=O)NCC(C)C)C(C)C)n1` (stereo not drawn) [tert-butyl 3-(1-(3,5-difluorophenyl)-3-hydroxy-6-(1-(isobutylamino)-3-methyl-1-oxobutan-2-ylamino)-5-methyl-6-oxohexan-2-ylamino)-2-(2-methyl-3-(4-methylthiazol-2-yl)propanamido)-3-oxopropylcarbamate], which IC50 is on record?
**A.** Its IC50 is 6 to 100 µM.

**Q.** With `Cc1csc(COC(=O)N[C@@H](CNS(C)(=O)=O)C(=O)N[C@@H](CC(C)C)[C@@H](O)C[C@@H](C)C(=O)N[C@H](C(=O)NCC(C)C)C(C)C)n1` as the compound, how does the IC50 read?
**A.** The IC50 was over 100 µM.
